# Assay results: patent US20150239831A1, “INHIBITORS OF CENTRAL NERVOUS SYSTEM VASOACTIVE INHIBITORY PEPTIDE RECEPTOR 2” (The Trustees Of Columbia University In The City Of New York, priority 2012, published 2015)
# Tests used:
# Assay type in all cases: cell-based
# Set-up in all cases: expressed in transfected cells; host or cells: HEK293 cells transfected with VIPR2 in pCDNA3.1 (as described)
# VIPR2 [1] = target: T1, VIPR2 (Homo sapiens, UniProt P41587); assay: Inhibition of VIP-induced β-arrestin recruitment (% Activity Arrestin)
# T1 sequence (P41587 24-438): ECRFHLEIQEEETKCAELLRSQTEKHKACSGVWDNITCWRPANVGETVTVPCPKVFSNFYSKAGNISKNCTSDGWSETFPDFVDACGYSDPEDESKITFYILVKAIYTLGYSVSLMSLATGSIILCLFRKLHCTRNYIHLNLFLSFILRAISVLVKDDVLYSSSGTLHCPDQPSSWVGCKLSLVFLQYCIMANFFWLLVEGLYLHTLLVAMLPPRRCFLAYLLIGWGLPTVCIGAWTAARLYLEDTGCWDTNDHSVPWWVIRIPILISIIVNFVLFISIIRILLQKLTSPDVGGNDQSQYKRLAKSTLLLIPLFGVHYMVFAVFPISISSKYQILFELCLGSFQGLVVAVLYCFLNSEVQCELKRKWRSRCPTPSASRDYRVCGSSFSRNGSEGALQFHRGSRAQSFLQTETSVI
# From the text: (§1) In a further non-limiting embodiment of the invention, the ability of a compound to inhibit VIPR2 GPCR activity may be tested, for example, using the PathHunter® eXpress β-Arrestin GPCR system (Discoverx Corporation, Fremont, Calif., US), as used by Chu et al., 2010, Molecular Pharmacol. 7795-101. In this assay, β-Arrestin is fused to the “Enzyme Acceptor” (“EA”), an N-terminal deletion mutant of β-gal, and the GPCR of interest is fused to a smaller (42 amino acids), weakly complementing portion of the β-gal enzyme (termed “ProLink™”). In cells that stably express these fusion proteins, the interaction of β-Arrestin and the GPCR following ligand stimulation forces the complementation of the two β-gal fragments resulting in the formation of a functional enzyme that converts substrate to detectable signal. In the absence of an interaction between the GPCR and β-Arrestin, the enzyme activity is low due to the low affinity of the two enzyme fragments. For example, a nucleic acid encoding VIPR2, for example hVIPR2, may be cloned into the ProLink vector (DiscoveRx) for GPCR-ProLink fusion protein production. Parental HEK293 cells that stably express β-arrestin2-β-gal-EA fusion protein (DiscoveRx) may be detached and transiently transfected with the VIPR2-containing vector using Fugene6 transfection reagent in suspension mode. Transfected cells in assay medium may be plated into test plates, for example at 15,000 cells/25 μl/well. After overnight incubation, 500 nl of an inhibitor or test inhibitor may be introduced into the test plate followed by 2 h incubation at 37° C., 5% CO2. Flash detection reagents may be added at 12.5 μl/well. After 5 min to 1 h of room-temperature incubation, the cell plates may be read on CLIPR (PerkinElmer Life and Analytical Sciences)or Acquest (Molecular Devices, Sunnyvale, Calif.) for luminescence signal.
# (§2) A series of compounds were prepared using a synthetic method analogous to that set forth in Scheme 1, above, and then tested for their ability to inhibit VIP-induced cAMP elevation and β-arrestin recruitment.
# (§3) A series of compounds were prepared using a synthetic method analogous to that set forth in Scheme 1, above, and then tested for their ability to inhibit VIP-induced cAMP elevation and β-arrestin recruitment, as described herein (Discoverx Corporation, Fremont, Calif., US). Compound activities were also tested in a BRET-based assay, as described herein. The results are shown below in Tables 1-4, above.
# VIPR2 [2] = target: T1, VIPR2; assay: Inhibition of VIP-induced cAMP elevation (% Activity cAMP)
# From the text: (§4) In a further non-limiting embodiment of the invention, the ability of a compound to inhibit VIPR2 and thereby […] a VIP-induced increase in cAMP may be measured using a Homogeneous Time-Resolved Fluorescence (“HTRF® assay; Cisbio Bioassays) as used in Chu et al., 2010, Molecular Pharmacol. 7795-101. In a method as used in Chu et al., 2010, Molecular Pharmacol. 7795-101, HEK293 cells may be transfected with nucleic acid encoding VIPR2, for example human VIPR2 (“hVIPR2”), for example comprised in a vector such as pCDNA3.1 vector. Successful transformants may then be selected, for example using 800 μg/ml G418. Clonal stable cell lines may then be generated by limited dilution to single cells and then may be clonally expanded and tested for VIP -dependent cAMP response. For the cAMP assay, about 3000-15,000 cells (in about 4-25 μl) may be placed in a well of an assay plate. The next day, inhibitor or test inhibitor and VIP may be added in a volume about 1-2 percent of the initial volume. Assay plates may then be returned to a cell incubator for 30 min before addition of a one-half volume of cAMP conjugate and, relative to the amount of cAMP conjugate, an equal volume of anti-cAMP conjugate (Cisbio). After at least 1 h of room-temperature incubation, HTRF signal may be read, for example using Viewlux or EnVision (PerkinElmer Life and Analytical Sciences, Waltham, Mass.). The ratio of […] at 665 nm and 620 nm times 10,000 may be calculated and plotted.
# as §2, §3
# VIPR2 [3] = target: T1, VIPR2; assay: % Activity: inhibition of VIP-induced cAMP elevation and β-arrestin recruitment (Table 2)
# From the text: as §4, §1, §3
smiles,measurement,setting,value
O=C(NC[C@@H](O)C[C@@H](Cc1ccccc1)C(=O)N[C@H]1c2ccccc2C[C@H]1O)C1CC1 [Compound A1],inhibition at 0.5 µM,VIPR2 [1]; Batch 1,-3.8%
same,inhibition at 1 µM,VIPR2 [1]; Batch 1,37%
same,inhibition at 5 µM,VIPR2 [1]; Batch 1,29.1%
same,inhibition at 0.5 µM,VIPR2 [2]; Batch 1,21%
same,inhibition at 1 µM,VIPR2 [2]; Batch 1,21.1%
same,inhibition at 5 µM,VIPR2 [2]; Batch 1,24%
same,% Activity,VIPR2 [3],26.55%
CNc1ccc(S(=O)(=O)NC[C@@H](O)C[C@@H](Cc2ccccc2)C(=O)N[C@H]2c3ccccc3C[C@H]2O)cc1 [Compound X082],inhibition at 0.5 µM,VIPR2 [1]; Batch 3,-0.8%
same,inhibition at 1 µM,VIPR2 [1]; Batch 3,1.1%
same,inhibition at 5 µM,VIPR2 [1]; Batch 3,4.3%
same,inhibition at 0.5 µM,VIPR2 [2]; Batch 3,-0.9%
same,inhibition at 1 µM,VIPR2 [2]; Batch 3,2%
same,inhibition at 5 µM,VIPR2 [2]; Batch 3,-7.3%
same,% Activity,VIPR2 [3],−1.5%
Cc1ccc([N+](=O)[O-])cc1S(=O)(=O)NC[C@@H](O)C[C@@H](Cc1ccccc1)C(=O)N[C@H]1c2ccccc2C[C@H]1O [P],inhibition at 0.5 µM,VIPR2 [1]; Batch 1,-12%
same,inhibition at 1 µM,VIPR2 [1]; Batch 1,-3.8%
same,inhibition at 5 µM,VIPR2 [1]; Batch 1,-0.6%
same,inhibition at 0.5 µM,VIPR2 [2]; Batch 1,10.9%
same,inhibition at 1 µM,VIPR2 [2]; Batch 1,13.6%
same,inhibition at 5 µM,VIPR2 [2]; Batch 1,18.3%
same,% Activity,VIPR2 [3],8.85%
O=C(NC[C@@H](O)C[C@@H](Cc1ccccc1)C(=O)N[C@H]1c2ccccc2C[C@H]1O)C1CCCCCC1 [Compound A8],inhibition at 0.5 µM,VIPR2 [1]; Batch 1,24.4%
same,inhibition at 1 µM,VIPR2 [1]; Batch 1,16.4%
same,inhibition at 5 µM,VIPR2 [1]; Batch 1,10.5%
same,inhibition at 0.5 µM,VIPR2 [2]; Batch 1,18.4%
same,inhibition at 1 µM,VIPR2 [2]; Batch 1,17%
same,inhibition at 5 µM,VIPR2 [2]; Batch 1,17%
same,% Activity,VIPR2 [3],13.75%
CC(C)C(=O)Nc1ccc(S(=O)(=O)NC[C@@H](O)C[C@@H](Cc2ccccc2)C(=O)N[C@H]2c3ccccc3C[C@H]2O)cc1 [Compound X092],inhibition at 0.5 µM,VIPR2 [1]; Batch 3,5.3%
same,inhibition at 1 µM,VIPR2 [1]; Batch 3,5.1%
same,inhibition at 5 µM,VIPR2 [1]; Batch 3,-7.5%
same,inhibition at 0.5 µM,VIPR2 [2]; Batch 3,1%
same,inhibition at 1 µM,VIPR2 [2]; Batch 3,6.9%
same,inhibition at 5 µM,VIPR2 [2]; Batch 3,16.7%
same,% Activity,VIPR2 [3],4.6%
O=C(NC1CCCCCC1)[C@@H](Cc1ccccc1)C[C@H](O)CNS(=O)(=O)c1ccc([N+](=O)[O-])cc1 [Compound B5B],inhibition at 0.5 µM,VIPR2 [1]; Batch 2,-4%
same,inhibition at 1 µM,VIPR2 [1]; Batch 2,3.6%
same,inhibition at 5 µM,VIPR2 [1]; Batch 2,6.8%
same,inhibition at 0.5 µM,VIPR2 [2]; Batch 2,15.5%
same,inhibition at 1 µM,VIPR2 [2]; Batch 2,10.6%
same,inhibition at 5 µM,VIPR2 [2]; Batch 2,14.3%
same,% Activity,VIPR2 [3],10.55%
O=C(NC[C@@H](O)C[C@@H](Cc1ccccc1)C(=O)N[C@H]1c2ccccc2C[C@H]1O)c1cccnc1 [Compound A16],inhibition at 0.5 µM,VIPR2 [1]; Batch 1,-6.8%
same,inhibition at 1 µM,VIPR2 [1]; Batch 1,-5.7%
same,inhibition at 5 µM,VIPR2 [1]; Batch 1,-6.3%
same,inhibition at 0.5 µM,VIPR2 [2]; Batch 1,15.2%
same,inhibition at 1 µM,VIPR2 [2]; Batch 1,13.5%
same,inhibition at 5 µM,VIPR2 [2]; Batch 1,16.4%
same,% Activity,VIPR2 [3],5.05%
CCCNc1ccc(S(=O)(=O)NC[C@@H](O)C[C@@H](Cc2ccccc2)C(=O)N[C@H]2c3ccccc3C[C@H]2O)cc1 [Compound X084],inhibition at 0.5 µM,VIPR2 [1]; Batch 3,4.1%
same,inhibition at 1 µM,VIPR2 [1]; Batch 3,2.6%
same,inhibition at 5 µM,VIPR2 [1]; Batch 3,6.7%
same,inhibition at 0.5 µM,VIPR2 [2]; Batch 3,-2.9%
same,inhibition at 1 µM,VIPR2 [2]; Batch 3,11.3%
same,inhibition at 5 µM,VIPR2 [2]; Batch 3,24.5%
same,% Activity,VIPR2 [3],15.6%
CC(C)CNc1ccc(S(=O)(=O)NC[C@@H](O)C[C@@H](Cc2ccccc2)C(=O)N[C@H]2c3ccccc3C[C@H]2O)cc1 [Compound X086],inhibition at 0.5 µM,VIPR2 [1]; Batch 3,10.2%
same,inhibition at 1 µM,VIPR2 [1]; Batch 3,5.2%
same,inhibition at 5 µM,VIPR2 [1]; Batch 3,11.9%
same,inhibition at 0.5 µM,VIPR2 [2]; Batch 3,21.6%
same,inhibition at 1 µM,VIPR2 [2]; Batch 3,16.7%
same,inhibition at 5 µM,VIPR2 [2]; Batch 3,27.4%
same,% Activity,VIPR2 [3],19.65%
NC[C@@H](O)C[C@@H](Cc1ccccc1)C(=O)N[C@H]1c2ccccc2C[C@H]1O [Compound A28],inhibition at 0.5 µM,VIPR2 [1]; Batch 1,3.7%
same,inhibition at 1 µM,VIPR2 [1]; Batch 1,1.4%
same,inhibition at 5 µM,VIPR2 [1]; Batch 1,19.7%
same,inhibition at 0.5 µM,VIPR2 [2]; Batch 1,11.8%
same,inhibition at 1 µM,VIPR2 [2]; Batch 1,15.9%
same,inhibition at 5 µM,VIPR2 [2]; Batch 1,15.2%
same,% Activity,VIPR2 [3],17.45%
O=C(N[C@H]1c2ccccc2C[C@H]1O)[C@H](Cc1ccccc1)C[C@H](O)CNS(=O)(=O)c1ccc(C(=O)N2CCCCC2)cc1 [Compound X101],inhibition at 0.5 µM,VIPR2 [1]; Batch 3,0%
same,inhibition at 1 µM,VIPR2 [1]; Batch 3,-17.3%
same,inhibition at 5 µM,VIPR2 [1]; Batch 3,-12.3%
same,inhibition at 0.5 µM,VIPR2 [2]; Batch 3,-6.3%
same,inhibition at 1 µM,VIPR2 [2]; Batch 3,-7.3%
same,inhibition at 5 µM,VIPR2 [2]; Batch 3,-1.4%
same,% Activity,VIPR2 [3],−6.85%
